Data as given in ChEMBL document CHEMBL1201862, “PubChem BioAssay data set” (2004).
Values joined by “and” are separate entries in the source; they are usually repeats but may differ in a detail not shown here. Equal values may be shown once.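 Cultured in 96-well plates, cells were exposed to test compound for 48 hours across five concentrations. Here, GI50 denotes the concentration required for 50% inhibition of growth.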 Active and inactive are the calls of the source. Rule as the data show it: active = GI50 up to about 1.1 µM and inactive = higher.

Tests used:
Assay in all cases: NCI anticancer screen, dose series, 48 h
U-251 = tested on: U-251
MOLT-4 = tested on: MOLT-4
HT-29 = tested on: HT-29
Hs-578T = tested on: Hs-578T
ACHN = tested on: ACHN
K562 = tested on: K562
HCC 2998 = tested on: HCC 2998
A549 = tested on: A549
CAKI-1 = tested on: CAKI-1
MDA-MB-435 = tested on: MDA-MB-435
M14 = tested on: M14
UACC-62 = tested on: UACC-62
MDA-MB-231 = tested on: MDA-MB-231
NCI-H460 = tested on: NCI-H460
EKVX = tested on: EKVX
PC-3 = tested on: PC-3
TK-10 = tested on: TK-10
UACC-257 = tested on: UACC-257
KM12 = tested on: KM12
IGROV-1 = tested on: IGROV-1

Compound	GI50 (U-251)	GI50 (MOLT-4)	GI50 (HT-29)	GI50 (Hs-578T)	GI50 (ACHN)	GI50 (K562)	GI50 (HCC 2998)	GI50 (A549)	GI50 (CAKI-1)	GI50 (MDA-MB-435)	GI50 (M14)	GI50 (UACC-62)	GI50 (MDA-MB-231)	GI50 (NCI-H460)	GI50 (EKVX)	GI50 (PC-3)	GI50 (TK-10)	GI50 (UACC-257)	GI50 (KM12)	GI50 (IGROV-1)
Cc1c2c(c(C)n1-c1ccccc1)C(=O)N(CCSC(=N)N)C2=O	68.9 µM (inactive)	14.2 µM (inactive)	> 100 µM (inactive)	> 100 µM (inactive)	32.6 µM (inactive)	> 100 µM (inactive)	> 100 µM (inactive)	> 100 µM (inactive)	50 µM (inactive)	93.3 µM (inactive)	> 100 µM (inactive)	> 100 µM (inactive)	> 100 µM (inactive)	12.3 µM (inactive)	9.75 µM (inactive)	> 100 µM (inactive)	> 100 µM (inactive)	28.8 µM (inactive)	> 100 µM (inactive)	> 100 µM (inactive)
CC(C)C1(NC(=O)C2CC3c4cccc5[nH]cc(c45)CC3N(C)C2)OC2(O)C3CCCN3C(=O)C(Cc3ccccc3)N2C1=O (stereo not drawn)	34.3 µM (inactive)	3.81 µM (inactive)	11.6 µM (inactive)	27.6 µM (inactive)	21.4 µM (inactive)		19 µM (inactive)	7.21 µM (inactive)	26 µM (inactive)	19.4 µM (inactive)	42.7 µM (inactive)	65.8 µM (inactive)	17.7 µM (inactive)	19.2 µM (inactive)	30.3 µM (inactive)	5.62 µM (inactive)	30.6 µM (inactive)	48.1 µM (inactive)	15.2 µM (inactive)	36.4 µM (inactive)
Cc1cc(C)c(O)c(CN2CCN(C(C)C)CCN(C(C)C)CC2)c1	37 µM (inactive)	11.7 µM (inactive)		24.5 µM (inactive)	32.1 µM (inactive)	17.9 µM (inactive)	18.8 µM (inactive)	32.3 µM (inactive)	75.2 µM (inactive)	18 µM (inactive)	12.4 µM (inactive)	27 µM (inactive)	48.3 µM (inactive)	34.7 µM (inactive)	78.5 µM (inactive)	22.3 µM (inactive)	36.2 µM (inactive)	18.5 µM (inactive)	17 µM (inactive)	2.26 µM (inactive)
C=C(Cl)C(Cl)(CBr)CCC(Br)C(C)(C)Cl (stereo not drawn)	277 nM (active) and 1.41 µM (inactive) and 615 nM (active)	20.6 µM (inactive) and 10.1 µM (inactive) and 13.5 µM (inactive)	497 nM (active) and 828 nM (active) and 735 nM (active)	914 nM (active) and 1.11 µM (active) and 665 nM (active)	1.7 µM (inactive) and 1.18 µM (inactive) and 1.32 µM (inactive)	1.33 µM (inactive) and 14.4 µM (inactive) and 863 nM (active)	3.15 µM (inactive) and 2.61 µM (inactive) and 1.59 µM (inactive)	4.36 µM (inactive) and 2.48 µM (inactive) and 3.09 µM (inactive)	217 nM (active) and 1.02 µM (active) and 828 nM (active)	2.18 µM (inactive) and 11.1 µM (inactive) and 1.77 µM (inactive)	18.7 µM (inactive) and 15.6 µM (inactive) and 26.7 µM (inactive)	3.72 µM (inactive) and 1.07 µM (active) and 3.47 µM (inactive)	8.36 µM (inactive) and 1.22 µM (inactive) and 1.95 µM (inactive)	2.34 µM (inactive) and 1.57 µM (inactive) and 1.45 µM (inactive)	1.79 µM (inactive) and 7.05 µM (inactive) and 3.31 µM (inactive)	1.6 µM (inactive) and 904 nM (active) and 1 µM (active)	3.43 µM (inactive) and 1.93 µM (inactive) and 2.07 µM (inactive)	2.78 µM (inactive) and 1.66 µM (inactive) and 2.1 µM (inactive)	1.34 µM (inactive) and 2.32 µM (inactive) and 1.43 µM (inactive)	11.9 µM (inactive) and 21.5 µM (inactive) and 8.41 µM (inactive)
COC(=O)c1ccc(C)cc1C1CN=NC12Cc1cccc(C)c1C2=O (stereo not drawn)	79.1 µM (inactive)	19.6 µM (inactive)	71.6 µM (inactive)	38.3 µM (inactive)	38.3 µM (inactive)	26.7 µM (inactive)	42.2 µM (inactive)	41.1 µM (inactive)	67.6 µM (inactive)	18.9 µM (inactive)	19.6 µM (inactive)	21 µM (inactive)	> 100 µM (inactive)	63 µM (inactive)	27.6 µM (inactive)	22.5 µM (inactive)	> 100 µM (inactive)	29.7 µM (inactive)	26.7 µM (inactive)	53.1 µM (inactive)
Cc1ccc2nc(Cl)c(/C=N/N3C(=O)/C(=C/c4cccc([N+](=O)[O-])c4)N=C3c3ccccc3)cc2c1	89.7 µM (inactive)	29.2 µM (inactive)	45.3 µM (inactive)	94.6 µM (inactive)	49.1 µM (inactive)	47.6 µM (inactive)	67.5 µM (inactive)	60.1 µM (inactive)	66.4 µM (inactive)	20.7 µM (inactive)	63.1 µM (inactive)	34 µM (inactive)	93.1 µM (inactive)	34.4 µM (inactive)	54.6 µM (inactive)	25.4 µM (inactive)	> 100 µM (inactive)	61.1 µM (inactive)	36.6 µM (inactive)	31.2 µM (inactive)
